From ChEMBL document CHEMBL2016558, “CB 1/2 dual agonists with 3-carbamoyl 2-pyridone derivatives as antipruritics: reduction of CNS side effects by introducing polar functional groups” (Bioorg Med Chem Lett, 2012) come the findings set out here.

Some results are limits rather than exact numbers.

As a reminder, the Ki is a measure of affinity in units of concentration, obtained from inhibition or displacement.

Data set [1] deals with Cannabinoid receptor 2 (Homo sapiens, UniProt P34972). Briefly: Displacement of [3H]-CP55940 from recombinant human CB2 receptor by scatchard plot analysis. (In general: Displacement assays read how much labelled ligand stays bound in the presence of the test substance.)
Sequence of Cannabinoid receptor 2 (P34972 whole entry): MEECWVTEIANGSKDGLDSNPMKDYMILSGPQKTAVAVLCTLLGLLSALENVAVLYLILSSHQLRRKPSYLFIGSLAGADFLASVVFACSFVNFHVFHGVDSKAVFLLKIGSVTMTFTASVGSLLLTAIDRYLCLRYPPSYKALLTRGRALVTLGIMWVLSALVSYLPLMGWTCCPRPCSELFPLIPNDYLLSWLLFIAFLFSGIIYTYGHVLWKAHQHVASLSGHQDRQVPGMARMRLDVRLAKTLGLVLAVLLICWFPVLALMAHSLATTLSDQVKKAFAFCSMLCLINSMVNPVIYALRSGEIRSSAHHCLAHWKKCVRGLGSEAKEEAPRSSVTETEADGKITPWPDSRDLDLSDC
Data set [2] deals with Cannabinoid receptor 1 (Homo sapiens, UniProt P21554). Description: Displacement of [3H]-CP55940 from recombinant human CB1 receptor by scatchard plot analysis.
Sequence of Cannabinoid receptor 1 (P21554 whole entry): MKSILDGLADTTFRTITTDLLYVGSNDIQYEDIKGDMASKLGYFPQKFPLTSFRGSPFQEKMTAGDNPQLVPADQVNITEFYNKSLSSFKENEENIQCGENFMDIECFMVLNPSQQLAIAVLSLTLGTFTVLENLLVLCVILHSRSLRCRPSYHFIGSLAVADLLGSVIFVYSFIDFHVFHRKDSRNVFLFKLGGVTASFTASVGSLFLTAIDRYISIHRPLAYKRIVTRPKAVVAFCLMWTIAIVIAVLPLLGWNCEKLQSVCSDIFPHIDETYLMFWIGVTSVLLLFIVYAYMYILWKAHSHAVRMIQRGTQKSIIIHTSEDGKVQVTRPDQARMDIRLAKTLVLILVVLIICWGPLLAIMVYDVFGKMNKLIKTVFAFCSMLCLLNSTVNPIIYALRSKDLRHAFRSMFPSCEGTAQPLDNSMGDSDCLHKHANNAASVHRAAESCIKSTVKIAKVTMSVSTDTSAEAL
The subject of data set [3] is Mus musculus. Briefly: Toxicity in ICR mouse assessed as CB1-mediated spasm, rigor at 0.1 to 1 mg/kg, iv after 15 mins. Format: organism-based. More on the design: dose 0.1-1 mg/kg, route intravenous. As to conditions: in vivo, 0.25 h.
For data set [4], the system named is Mus musculus. Briefly: Toxicity in ICR mouse assessed as CB1-mediated moving sluggishly at 0.1 to 1 mg/kg, iv after 15 mins. Type of data set: organism-based. More on the design: dose 0.1-1 mg/kg, route intravenous. As to conditions: in vivo, 0.25 h.
The test system of data set [5] is Mus musculus. Description: Toxicity in ICR mouse assessed as CB1-induced catalepsy at 0.1 to 1 mg/kg, iv after 15 mins. As to conditions: in vivo, 0.25 h. More on the design: dose 0.1-1 mg/kg, route intravenous. Format: organism-based.
The subject of data set [6] is Mus musculus. Briefly: Toxicity in ICR mouse assessed as CB1-mediated walking with lying on the belly at 0.1 to 1 mg/kg, iv after 15 mins. Format: organism-based. More on the design: dose 0.1-1 mg/kg, route intravenous. As to conditions: in vivo, 0.25 h.
Data set [7] has as its system Mus musculus. Briefly: Toxicity in ICR mouse assessed as CB1-mediated stretching the without moving at 0.1 to 1 mg/kg, iv after 15 mins. More on the design: dose 0.1-1 mg/kg, route intravenous. Type of data set: organism-based. As to conditions: in vivo, 0.25 h.
For data set [8], the system named is Mus musculus. Description: Antipruritic activity in Crj:CD1 ICR mouse pruritic model assessed as inhibition of compound 48/80-induced scratching compound topically applied on the shaved back 15 mins prior challenge measured for 30 mins relative to control. Format: functional.
A short description of data set [9]: Ratio of drug level in brain to plasma in rat. Type of data set: ADME. As to conditions: read-out: BPR.

Take `CN(C)CCNC(=O)C(C)(C)NC(=O)c1cc2c(n(CC3CCCCC3)c1=O)CCCCCC2`: the Ki in data set [1] is 81 nM; in data set [2], 242 nM.

On to `CC(C)(NC(=O)c1cc2c(n(CC3CCCCC3)c1=O)CCCCCC2)C(=O)N1CCC(C(=O)O)CC1`, for which the figures for the Ki in data set [1] and in data set [2] were 377 nM and 2970 nM, respectively.

In the case of `CC(C)(NC(=O)c1cc2c(n(CC3CCCCC3)c1=O)CCCCCC2)C(=O)N1CCC(NS(C)(=O)=O)CC1`, the Activity result in data set [3], in data set [4], in data set [5], in [6] and in data set [7] was “Non-toxic” each time.

`CC(C)(NC(=O)c1cc2c(n(CC3CCCCC3)c1=O)CCCCCC2)C(=O)NCCOCCO`: the Activity result in data set [3], in data set [4], in [5], in data set [6] and in data set [7] was “Toxic” throughout. For the same compound, the Ki in [1] came out at 0.6 nM; in data set [2], 3.4 nM.

In the case of `CC(C)(NC(=O)c1cc2c(n(CC3CCCCC3)c1=O)CCCCCC2)C(=O)NCC(N)=O`, the Activity result in [3], in data set [4], in [5], in data set [6] and in data set [7] was “Toxic” throughout.

As for `CC(C)(NC(=O)c1cc2c(n(CC3CCCCC3)c1=O)CCCCCC2)C(=O)NNS(C)(=O)=O`, the Activity entry in [3], in data set [4], in data set [5], in data set [6] and in [7] was “Non-toxic” throughout. The “inhibition (INH)” value in data set [8] is 87%. Moreover, the Kp in data set [9] came out at 0.02. Further, the Ki turned out to be 7.3 nM in data set [1] and 32 nM in data set [2].

`CC(=O)NCCNC(=O)C(C)(C)NC(=O)c1cc2c(n(CC3CCCCC3)c1=O)CCCCCC2`: the Activity entry in data set [3], in [4], in data set [5], in data set [6] and in data set [7] was “Toxic” in each case. For the same compound, the Ki was found to be 2.5 nM in [1] and 4.7 nM in [2].

As to `COC(=O)C(C)(C)NC(=O)c1cc2c(n(CC3CCCCC3)c1=O)CCCCCC2`, the Activity entry in data set [3], in data set [4], in data set [5], in data set [6] and in data set [7] was “Toxic” in each case. The Kp in data set [9] was 3.35. For the same compound, the Ki in [1] was determined as 0.3 nM; in data set [2] it was 1.7 nM.

For the compound `CN(CCO)C(=O)C(C)(C)NC(=O)c1cc2c(n(CC3CCCCC3)c1=O)CCCCCC2`, the Activity result in data set [3], in data set [4], in [5], in data set [6] and in [7] was “Toxic” in each case. The Kp in data set [9] came to 0.28. The Ki in [1] stood at 0.6 nM.

Turning to `CC(C)(NC(=O)c1cc2c(n(CC3CCCCC3)c1=O)CCCCCC2)C(=O)NCCCCCO`, the Activity entry in data set [3], in data set [4], in data set [5], in data set [6] and in [7] was “Toxic” each time. Further, the Ki in data set [1] was determined as 1.2 nM; in data set [2], 5.8 nM.

Take `CC(C)(NC(=O)c1cc2c(n(CC3CCCCC3)c1=O)CCCCCC2)C(=O)N1CCC(O)CC1`: the Activity entry in [3], in [4], in data set [5], in data set [6] and in [7] was “Toxic” in each case. The Ki was 1.1 nM in data set [1] and 8 nM in data set [2].

As to `CC(C)(NC(=O)c1cc2c(n(CC3CCCCC3)c1=O)CCCCCC2)C(=O)N1CCC(C(=O)NS(C)(=O)=O)CC1`, the Ki in [1] was found to be 128 nM; in [2], 218 nM.

Turning to `CC(C)(NC(=O)c1cc2c(n(CC3CCCCC3)c1=O)CCCCCC2)C(=O)NCCCO`, the Activity result in data set [3], in [4], in data set [5], in data set [6] and in [7] was “Toxic” throughout. In addition, the inhibition constant (Ki) in data set [1] stood at 1 nM; in data set [2] it was 6.3 nM.

For the compound `CC(C)(NC(=O)c1cc2c(n(CC3CCCCC3)c1=O)CCCCCC2)C(=O)NCC(=O)O`, the Ki is 2820 nM in [1] and greater than 5000 nM in [2].

As for `CC(C)(NC(=O)c1cc2c(n(CC3CCCCC3)c1=O)CCCCCC2)C(=O)NN`, the Activity entry in data set [3], in [4], in data set [5], in data set [6] and in data set [7] was “Toxic” throughout. Moreover, the Ki in data set [1] worked out at 2.8 nM; in data set [2] it was 30 nM.

In the case of `CC(C)(NC(=O)c1cc2c(n(CC3CCCCC3)c1=O)CCCCCC2)C(=O)N1CCC(C(N)=O)CC1`, the Activity entry in data set [3], in data set [4], in data set [5], in data set [6] and in data set [7] was “Toxic” throughout. For the same compound, the Ki in data set [1] stood at 3 nM; in data set [2] it was 4.9 nM.
